US20230365582A1, “NOVEL COMPOUNDS HAVING INHIBITORY ACTIVITY ON PROSTAGLANDIN E2 RECEPTOR AND USES THEREOF” (KANAPH THERAPEUTICS INC., priority 2020, published 2023)

How the values were obtained:
hEP4 = molecular target: T1, hEP4 (Homo sapiens, UniProt P35408); experiment: hEP4 cAMP assay; format: cell-based; details: HEK293 cells overexpressing hEP4; PGE2 agonist 20 nM; graded per Table 21; read-out: IC50 (nM) EP4 cAMP
T1 construct: expressed in transfected cells; host or cells: HEK293
Summary of the method: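 HEK293 cells overexpressing hEP4, starved 4 h, were treated with compound (10 μM-0.001 nM) plus 20 nM PGE2 (EC50-80) in HBSS buffer with 0.5 mM IBMX for 18.5 min at room temperature. cAMP was read by TR-FRET (665/615 nm) as % of DMSO control; IC50 from 4-parameter fit, median of multiple experiments.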

hEP2 = molecular target: T2, hEP2 (Homo sapiens, UniProt P43116); experiment: hEP2 cAMP assay; format: cell-based; details: HEK293 cells overexpressing hEP2; PGE2 agonist 400 pM; graded per Table 21; read-out: IC50 (nM) EP2 cAMP
T2 construct: expressed in transfected cells; host or cells: HEK293
Summary of the method: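 HEK293 cells overexpressing hEP2, serum-starved 4 h, then 1,000 cells/well treated with compound (10 μM–0.001 nM) plus 400 pM PGE2 (about EC50-80) in HBSS buffer with 0.5 mM IBMX for 12 min at room temperature. cAMP measured by TR-FRET (665/615 nm) as % of DMSO control; IC50 from 4-parameter fit, median of repeats.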

T2 sequence (P43116 whole entry): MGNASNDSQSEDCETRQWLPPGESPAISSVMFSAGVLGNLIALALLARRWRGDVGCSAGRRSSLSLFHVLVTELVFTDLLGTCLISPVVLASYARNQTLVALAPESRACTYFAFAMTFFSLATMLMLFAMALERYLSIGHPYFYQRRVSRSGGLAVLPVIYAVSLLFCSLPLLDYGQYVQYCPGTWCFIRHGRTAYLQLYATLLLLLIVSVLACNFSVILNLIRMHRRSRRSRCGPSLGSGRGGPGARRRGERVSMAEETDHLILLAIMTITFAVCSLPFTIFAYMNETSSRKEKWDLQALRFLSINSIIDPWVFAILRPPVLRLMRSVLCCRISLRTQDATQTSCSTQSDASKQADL
T1 sequence (P35408 whole entry): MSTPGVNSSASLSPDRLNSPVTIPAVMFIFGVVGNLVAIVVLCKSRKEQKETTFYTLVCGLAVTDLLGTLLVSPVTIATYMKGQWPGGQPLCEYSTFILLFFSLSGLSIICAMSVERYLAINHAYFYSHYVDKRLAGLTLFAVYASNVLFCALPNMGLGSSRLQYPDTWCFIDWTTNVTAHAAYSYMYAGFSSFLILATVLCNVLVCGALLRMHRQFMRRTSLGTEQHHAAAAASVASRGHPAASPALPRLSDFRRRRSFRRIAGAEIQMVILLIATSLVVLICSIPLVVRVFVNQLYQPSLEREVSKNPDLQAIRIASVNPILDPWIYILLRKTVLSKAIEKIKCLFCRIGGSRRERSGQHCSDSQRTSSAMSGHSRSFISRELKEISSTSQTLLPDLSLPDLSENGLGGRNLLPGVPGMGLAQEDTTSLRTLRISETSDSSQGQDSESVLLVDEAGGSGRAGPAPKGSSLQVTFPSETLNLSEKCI

SMILES	IC50 (hEP4)	IC50 (hEP2)
O=C(NC1CC2(C1)CC(C(=O)O)C2)c1c(Cl)sc2ccn(Cc3ccc(-c4ccccc4)cc3)c12 (centres unmarked) [Example 82, 6-(4-([1,1′-biphenyl]-4-ylmethyl)-2-chloro-4H-thieno[3,2-b]pyrrole-3-carboxamido)spiro[3.3]heptane-2-carboxylic acid]	< 500 nM	500 to 5000 nM
O=C(NC1CC2(C1)CC(C(=O)O)C2)c1sccc1Cc1ccc(-c2ccccc2)cc1 (centres unmarked) [Example 18, 6-(3-([1,1′-biphenyl]-4-ylmethyl)thiophene-2-carboxamido)spiro[3.3]heptane-2-carboxylic acid]	500 to 5000 nM	500 to 5000 nM
COc1cc(OC)cc(-c2ccc(Cn3ccc4scc(C(=O)NC5CC6(C5)CC(C(=O)O)C6)c43)cc2)c1 (centres unmarked) [Example 89, 6-(4-((3′,5′-dimethoxy-[1,1′-biphenyl]-4-yl)methyl)-4H-thieno[3,2-b]pyrrole-3-carboxamido)spiro[3.3]heptane-2-carboxylic acid]	< 500 nM	< 500 nM
O=C(NC1CC2(C1)CC(C(=O)O)C2)c1c(Cl)sc(Cl)c1Cc1ccc(-c2ccccc2)cc1 (centres unmarked) [Example 17, 6-(4-([1,1′-biphenyl]-4-ylmethyl)-2,5-dichlorothiophene-3-carboxamido)spiro[3.3]heptane-2-carboxylic acid]	< 500 nM	5000 to 10000 nM
Cc1sc(C)c(C(=O)NC2CC3(C2)CC(C(=O)O)C3)c1Cc1ccc(-c2ccc(F)cc2)cc1 (centres unmarked) [Example 69, 6-(4-((4′-fluoro-[1,1′-biphenyl]-4-yl)methyl)-2,5-dimethylthiophene-3-carboxamido)spiro[3.3]heptane-2-carboxylic acid]	< 500 nM	500 to 5000 nM
Cc1sc(C)c(C(=O)NC2CC3(C2)CC(C(=O)O)C3)c1Cc1ccc(C2=CCCCC2)cc1 (centres unmarked) [Example 32, 6-(2,5-dimethyl-4-((2′,3′,4′,5′_ tetrahydro-[1,1′-biphenyl]-4-yl)methyl)thiophene-3-carboxamido)spiro[3.3]heptane-2-carboxylic acid]	500 to 5000 nM	> 10000 nM
O=C(NC1CC2(C1)CC(C(=O)O)C2)c1csc2ccn(Cc3ccc(-n4cccn4)cc3)c12 (centres unmarked) [Example 107, 6-(4-(4-(1H-pyrazol-1-yl)benzyl)-4H-thieno[3,2-b]pyrrole-3-carboxamido)spiro[3.3]heptane-2-carboxylic acid]	500 to 5000 nM	> 10000 nM
Cc1sc(C)c(C(=O)NC2CC3(C2)CC(C(=O)O)C3)c1Cc1ccc(-c2ccc(OC(F)(F)F)cc2)cc1 (centres unmarked) [Example 42, 6-(2,5-dimethyl-4-((4′-(trifluoromethoxy)-[1,1′-biphenyl]-4-yl)methyl)thiophene-3-carboxamido)spiro[3.3]heptane-2-carboxylic acid]	500 to 5000 nM	> 10000 nM
Cc1sc(C)c(C(=O)NC2CC3(C2)CC(C(=O)O)C3)c1Cc1ccc(-c2cc(F)cc(S(C)(=O)=O)c2)cc1 (centres unmarked) [Example 56, 6-(4-((3′-fluoro-5′-(methylsulfonyl)-[1,1′-biphenyl]-4-yl)methyl)-2,5-dimethylthiophene-3-carboxamido)spiro[3.3]heptane-2-carboxylic acid]	5000 to 10000 nM	> 10000 nM
Cc1sc(C)c(C(=O)NC2CC3(C2)CC(C(=O)O)C3)c1Cc1ccc(-c2cc(F)cc(C3CNC3)c2)cc1 (centres unmarked) [Example 65, 6-(4-((3′-(azetidin-3-yl)-5′-fluoro-[1,1′-biphenyl]-4-yl)methyl)-2,5-dimethylthiophene-3-carboxamido)spiro[3.3]heptane-2-carboxylic acid]	500 to 5000 nM	> 10000 nM
COc1cc(F)cc(-c2ccc(Cc3c(C)sc(C)c3C(=O)N[C@H]3CC4(C3)C[C@H](C(=O)O)C4)cc2)c1 (single isomer, unassigned) [Example 34b]	< 500 nM	< 500 nM
COc1cc(F)cc(-c2ccc(Cc3ccsc3C(=O)NC3CC4(C3)CC(C(=O)O)C4)cc2)c1 (centres unmarked) [Example 19, 6-(3-((3′-fluoro-5′-methoxy-[1,1′-biphenyl]-4-yl)methyl)thiophene-2-carboxamido) spiro[3.3]heptane-2-carboxylic acid]	< 500 nM	500 to 5000 nM
Cc1sc(C)c(C(=O)NC2CC3(C2)CC(C(=O)O)C3)c1Cc1ccc(-c2ccnc(O)c2)cc1 (centres unmarked) [Example 72, 6-(4-(4-(2-hydroxypyridin-4-yl)benzyl)-2,5-dimethylthiophene-3-carboxamido)spiro[3.3]heptane-2-carboxylic acid]	> 10000 nM	> 10000 nM
COc1cc(-c2ccc(Cc3c(C)sc(C)c3C(=O)NC3CC4(C3)CC(C(=O)O)C4)cc2)cc(C2(O)COC2)c1 (centres unmarked) [Example 61, 6-(4-((3′-(3-hydroxyoxetane-3-yl)-5′-methoxy-[1,1′-biphenyl]-4-yl)methyl)-2,5-dimethylthiophene-3-carboxamido)spiro[3.3]heptane-2-carboxylic acid]	500 to 5000 nM	> 10000 nM
COc1cc(C(N)=O)cc(-c2ccc(Cc3c(C)sc(C)c3C(=O)NC3CC4(C3)CC(C(=O)O)C4)cc2)c1 (centres unmarked) [Example 58, 6-(4-((3′-carbamoyl-5′-methoxy-[1,1′-biphenyl]-4-yl)methyl)-2,5-dimethylthiophene-3-carboxamido)spiro[3.3]heptane-2-carboxylic acid]	< 500 nM	500 to 5000 nM
CCc1ccc(-c2ccc(Cc3c(C)sc(C)c3C(=O)NC3CC4(C3)CC(C(=O)O)C4)cc2)cc1 (centres unmarked) [Example 31, 6-(4-((4′-ethyl-[1,1′-biphenyl]-4-yl)methyl)-2,5-dimethylthiophene-3-carboxamido)spiro[3.3]heptane-2-carboxylic acid]	< 500 nM	5000 to 10000 nM
COc1cc(F)cc(-c2ccc(Cn3ccc4sc(C)c(C(=O)NC5CC6(C5)CC(C(=O)O)C6)c43)cc2)c1 (centres unmarked) [Example 95]	< 500 nM	500 to 5000 nM
Cc1ccc(-c2ccc(Cc3c(C)sc(C)c3C(=O)NC3CC4(C3)CC(C(=O)O)C4)cc2)cc1C (centres unmarked) [Example 28, 6-(4-((3′,4′-dimethyl-[1,1′-biphenyl]-4-yl)methyl)-2,5-dimethylthiophene-3-carboxamido)spiro[3.3]heptane-2-carboxylic acid]	< 500 nM	500 to 5000 nM
Cc1sc(C)c(C(=O)NC2CC3(C2)CC(C(=O)O)C3)c1Cc1ccc(-c2cccc(F)c2)cc1 (centres unmarked) [Example 43, 6-(4-((3′-fluoro-[1,1′-biphenyl]-4-yl)methyl)-2,5-dimethylthiophene-3-carboxamido)spiro[3.3]heptane-2-carboxylic acid]	< 500 nM	500 to 5000 nM
O=C(NC1CC2(C1)CC(C(=O)O)C2)c1c(Br)sc(Br)c1Cc1ccc(-c2ccccc2)cc1 (centres unmarked) [Example 16, 6-(4-([1,1′-biphenyl]-4-ylmethyl)-2,5-dibromothiophene-3-carboxamido)spiro[3.3]heptane-2-carboxylic acid]	500 to 5000 nM	> 10000 nM
Cc1sc2ccn(Cc3ccc(-c4ccccc4)cc3)c2c1C(=O)NC1CC2(C1)CC(C(=O)O)C2 (centres unmarked) [Example 80, 6-(4-([1,1′-biphenyl]-4-ylmethyl)-2-methyl-4H-thieno[3,2-b]pyrrole-3-carboxamido)spiro[3.3]heptane-2-carboxylic acid]	< 500 nM	500 to 5000 nM
O=C(NC12CCC(C(=O)O)(CC1)CC2)c1csc2ccn(Cc3ccc(-c4ccccc4)cc3)c12 [Example 88, 4-(4-([1,1′-biphenyl]-4-ylmethyl)-4H-thieno[3,2-b]pyrrole-3-carboxamido)bicyclo[2.2.2]octane-1-carboxylic acid]	5000 to 10000 nM	500 to 5000 nM
Cc1sc2ccn(Cc3ccc(-c4ccccc4)cc3)c2c1C(=O)N[C@H]1CC2(C1)C[C@H](C(=O)O)C2 (single isomer, unassigned) [Example 80a]	> 10000 nM	500 to 5000 nM
Cc1ccc(Cc2c(C)sc(C)c2C(=O)NC2CC3(C2)CC(C(=O)O)C3)cc1 (centres unmarked) [Example 2, 6-(2,5-dimethyl-4-(4-methylbenzyl)thiophene-3-carboxamido)spiro[3.3]heptane-2-carboxylic acid]	> 10000 nM	> 10000 nM
O=C(NC1CC2(C1)CC(C(=O)O)C2)c1csc2ccn(Cc3ccc(-c4ccncc4)cc3)c12 (centres unmarked) [Example 106, 6-(4-(4-(pyridin-4-yl)benzyl)-4H-thieno[3,2-b]pyrrole-3-carboxamido)spiro[3.3]heptane-2-carboxylic acid]	< 500 nM	5000 to 10000 nM
Cc1cn(Cc2ccc(-c3ccccc3)cc2)c2c(C(=O)NC3CC4(C3)CC(C(=O)O)C4)csc12 (centres unmarked) [Example 81, 6-(4-([1,1′-biphenyl]-4-ylmethyl)-6-methyl-4H-thieno[3,2-b]pyrrole-3-carboxamido)spiro[3.3]heptane-2-carboxylic acid]	> 10000 nM	500 to 5000 nM
COc1cc(C#N)cc(-c2ccc(Cc3c(C)sc(C)c3C(=O)NC3CC4(C3)CC(C(=O)O)C4)cc2)c1 (centres unmarked) [Example 41, 6-(4-((3′-cyano-5′-methoxy-[1,1′-biphenyl]-4-yl)methyl)-2,5-dimethylthiophene-3-carboxamido)spiro[3.3]heptane-2-carboxylic acid]	< 500 nM	500 to 5000 nM
Cc1sc(C)c(C(=O)NC2CC3(C2)CC(C(=O)O)C3)c1Cc1ccc(-c2cccc(C(F)(F)F)c2)cc1 (centres unmarked) [Example 44, 6-(2,5-dimethyl-4-((3′-(trifluoromethyl)-[1,1′-biphenyl]-4-yl)methyl)thiophene-3-carboxamido)spiro[3.3]heptane-2-carboxylic acid]	< 500 nM	500 to 5000 nM
